Experimental data reported in paper PMC3746001 (ACS chemical biology, 2013).
Where “and” joins values, the source holds several entries; their conditions need not be identical. Equal values may be shown once.

Key:
[1] = biological target: T1, human Y-family DNA polymerase kappa (hpol κ) (Homo sapiens, UniProt Q9UBT6); assay: Fluorescence-based polymerase assay, hpol κ; format: biochemical; conditions: read-out: IC50 for inhibition of hpol κ; 3 nM hpol κ, 60 nM DNA; mean ± standard deviation
T1 sequence (Q9UBT6 19-526): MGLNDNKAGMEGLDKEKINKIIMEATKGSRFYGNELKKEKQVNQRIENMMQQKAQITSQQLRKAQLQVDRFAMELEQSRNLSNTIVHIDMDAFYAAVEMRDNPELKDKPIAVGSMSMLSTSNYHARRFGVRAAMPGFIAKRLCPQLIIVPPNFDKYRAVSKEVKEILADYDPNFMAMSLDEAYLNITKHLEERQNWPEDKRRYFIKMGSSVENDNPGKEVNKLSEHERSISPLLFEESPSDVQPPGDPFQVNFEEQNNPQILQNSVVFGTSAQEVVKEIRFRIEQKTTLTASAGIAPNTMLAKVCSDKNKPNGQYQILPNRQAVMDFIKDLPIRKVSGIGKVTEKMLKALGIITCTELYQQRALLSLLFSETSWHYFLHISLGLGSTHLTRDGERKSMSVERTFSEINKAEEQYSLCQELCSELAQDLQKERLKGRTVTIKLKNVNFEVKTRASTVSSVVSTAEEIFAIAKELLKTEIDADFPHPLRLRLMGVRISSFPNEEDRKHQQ

[2] = biological target: T2, human DNA polymerase eta (hpol η) (Homo sapiens, UniProt Q9Y253); assay: Fluorescence-based polymerase strand-displacement assay, hpol η; format: biochemical; conditions: for IC50: read-out: IC50 for inhibition of hpol η, 10 nM hpol η, 50 nM DNA, 0.1 mM dTTP, mean ± standard deviation, triplicate
T2 sequence (Q9Y253 1-437): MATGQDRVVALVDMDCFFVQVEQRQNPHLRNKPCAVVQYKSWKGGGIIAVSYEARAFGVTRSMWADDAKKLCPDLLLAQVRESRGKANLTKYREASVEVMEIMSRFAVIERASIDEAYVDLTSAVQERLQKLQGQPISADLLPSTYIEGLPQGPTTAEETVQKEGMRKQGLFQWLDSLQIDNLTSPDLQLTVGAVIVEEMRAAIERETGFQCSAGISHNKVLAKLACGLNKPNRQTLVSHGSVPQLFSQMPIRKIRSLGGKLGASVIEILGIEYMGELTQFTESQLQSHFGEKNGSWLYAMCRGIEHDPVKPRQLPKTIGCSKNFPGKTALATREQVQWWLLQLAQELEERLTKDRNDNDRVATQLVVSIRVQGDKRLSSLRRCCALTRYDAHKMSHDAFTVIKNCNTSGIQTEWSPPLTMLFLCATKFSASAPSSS

hetero-dimeric hpol γ = biological target: T3, hetero-dimeric hpol γ (Homo sapiens, UniProt P54098); assay: Fluorescence-based polymerase assay, hpol γ; format: biochemical; conditions: read-out: IC50 for inhibition of hpol γ; 10 nM hpol γ, 50 nM DNA; mean ± standard deviation
T3 sequence (P54098 1-1239): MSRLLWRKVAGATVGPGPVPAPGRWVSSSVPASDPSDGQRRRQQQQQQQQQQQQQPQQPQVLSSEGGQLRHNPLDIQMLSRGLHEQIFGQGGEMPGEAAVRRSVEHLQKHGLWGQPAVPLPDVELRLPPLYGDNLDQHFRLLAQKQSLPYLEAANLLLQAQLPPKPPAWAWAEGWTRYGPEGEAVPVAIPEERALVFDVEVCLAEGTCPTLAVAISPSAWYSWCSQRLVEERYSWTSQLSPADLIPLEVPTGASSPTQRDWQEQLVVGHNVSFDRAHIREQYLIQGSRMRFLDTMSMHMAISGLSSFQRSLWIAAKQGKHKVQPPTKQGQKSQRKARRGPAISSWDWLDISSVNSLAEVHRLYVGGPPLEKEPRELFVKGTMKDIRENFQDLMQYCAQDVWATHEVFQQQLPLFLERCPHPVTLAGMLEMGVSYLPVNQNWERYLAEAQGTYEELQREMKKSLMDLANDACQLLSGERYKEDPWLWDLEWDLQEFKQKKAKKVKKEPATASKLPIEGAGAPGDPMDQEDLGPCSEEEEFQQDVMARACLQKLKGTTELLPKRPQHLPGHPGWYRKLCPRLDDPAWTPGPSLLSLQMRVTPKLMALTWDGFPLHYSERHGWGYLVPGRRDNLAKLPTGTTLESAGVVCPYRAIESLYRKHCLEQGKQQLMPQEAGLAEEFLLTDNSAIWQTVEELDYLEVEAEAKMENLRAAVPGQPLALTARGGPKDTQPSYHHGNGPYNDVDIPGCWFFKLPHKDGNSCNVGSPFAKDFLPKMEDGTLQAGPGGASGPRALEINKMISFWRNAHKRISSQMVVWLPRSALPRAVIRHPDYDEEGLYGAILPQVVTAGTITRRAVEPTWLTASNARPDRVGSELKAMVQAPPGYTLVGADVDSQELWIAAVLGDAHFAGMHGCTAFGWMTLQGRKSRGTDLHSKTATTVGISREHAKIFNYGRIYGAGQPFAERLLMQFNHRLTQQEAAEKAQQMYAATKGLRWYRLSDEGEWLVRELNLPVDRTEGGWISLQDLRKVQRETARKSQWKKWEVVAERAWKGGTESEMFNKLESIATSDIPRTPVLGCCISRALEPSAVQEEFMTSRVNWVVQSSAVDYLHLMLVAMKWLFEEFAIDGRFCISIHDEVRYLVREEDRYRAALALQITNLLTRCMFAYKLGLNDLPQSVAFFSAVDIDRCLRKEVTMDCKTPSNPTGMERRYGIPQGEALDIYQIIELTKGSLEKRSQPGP
T3 sequence (Q9UHN1 26-485 partner limits assumed): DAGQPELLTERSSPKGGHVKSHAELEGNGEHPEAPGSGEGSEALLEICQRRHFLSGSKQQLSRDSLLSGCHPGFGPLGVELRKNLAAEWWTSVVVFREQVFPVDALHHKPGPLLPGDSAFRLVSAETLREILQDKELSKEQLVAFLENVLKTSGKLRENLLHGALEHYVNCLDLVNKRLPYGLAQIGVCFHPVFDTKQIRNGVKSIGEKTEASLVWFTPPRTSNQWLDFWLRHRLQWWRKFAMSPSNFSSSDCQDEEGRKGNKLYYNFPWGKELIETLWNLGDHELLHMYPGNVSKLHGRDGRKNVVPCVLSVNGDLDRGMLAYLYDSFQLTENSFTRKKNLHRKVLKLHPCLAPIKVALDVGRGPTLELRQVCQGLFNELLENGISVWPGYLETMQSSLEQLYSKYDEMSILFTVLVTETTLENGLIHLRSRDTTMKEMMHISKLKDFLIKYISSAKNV

human tumor cell lines = conditions: cited from earlier work
hpol ι = biological target: T4, hpol ι (Homo sapiens, UniProt Q9UNA4); conditions: cited from earlier work
T4 sequence (Q9UNA4 26-446): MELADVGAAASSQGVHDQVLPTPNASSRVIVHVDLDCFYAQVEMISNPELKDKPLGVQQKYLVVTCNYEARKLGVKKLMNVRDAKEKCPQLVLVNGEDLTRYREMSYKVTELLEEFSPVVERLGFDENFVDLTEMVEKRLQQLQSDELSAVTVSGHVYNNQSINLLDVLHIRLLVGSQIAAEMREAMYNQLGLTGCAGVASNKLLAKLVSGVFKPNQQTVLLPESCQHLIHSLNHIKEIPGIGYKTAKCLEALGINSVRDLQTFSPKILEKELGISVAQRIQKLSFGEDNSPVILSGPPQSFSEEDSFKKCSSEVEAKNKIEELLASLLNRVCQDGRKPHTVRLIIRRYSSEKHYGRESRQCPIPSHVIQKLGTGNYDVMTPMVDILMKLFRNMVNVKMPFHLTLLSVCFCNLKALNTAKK

hpol η = conditions: cited from earlier work
hpol β = conditions: cited from earlier work

SMILES	IC50 [2]	IC50 for inhibition of hpol ι (hpol ι)	IC50 for inhibition of hpol η (hpol η)	IC50 for inhibition of hpol β (hpol β)	Specificity against hpol β (hpol β)	also measured
O=C1NC(=S)NC(=O)C1=Cc1cn(C(=O)c2cccc3ccccc23)c2ccc(Cl)cc12 [ITBA-16]	16 µM and 15.8 µM	–	–	–	–	IC50 [1]: 32.9 ± 3.2 µM; Fold by which IC50 for hpol η is lower than any of the other pols tested ([2]; hpol η versus seven other polymerases): over 2 fold; IC50 (hetero-dimeric hpol γ): 35.3 ± 2.9 µM
O=C1NC(=S)NC(=O)C1=Cc1cn(C(=O)c2cccc3ccccc23)c2ccc(Cl)cc12 [ITBA-17]	–	–	–	–	–	Anti-proliferative and cytotoxic properties (human tumor cell lines): potent anti-proliferative and cytotoxic properties
O=C1NC(=S)NC(=O)C1=Cc1cn(C(=O)c2ccc3ccccc3c2)c2ccccc12 [ITBA-18]	67.8 ± 3.3 µM	–	–	–	–	Inhibition of hpol η activity (percent activity relative to control), in words ([2]; 50 μM compound, relative to DMSO control (Figure 4C)): roughly equal activity against hpol η
CC(C)c1ccc2c(c1)c(SC(C)(C)C)c(CC(C)(C)C(=O)O)n2Cc1ccc(Cl)cc1 [MK886]	–	–	–	–	–	Inhibition of hpol ι relative to other Y-family pols (hpol ι; hpol ι versus other Y-family pols): five- to eight-times more effectively; IC50 (hpol ι; read-out: IC50 for inhibition of hpol ι): 9 µM; IC50 (hpol η; read-out: IC50 for inhibition of hpol η): ~46 µM
O=C(O)C1=CC(=C(c2ccc(O)c(C(=O)O)c2)c2ccc(O)c(C(=O)O)c2)C=CC1=O [aurintricarboxylic acid]	–	sub-micromolar	sub-micromolar	sub-micromolar	greater than 2 fold	–
O=c1oc2c(O)c(O)cc3c(=O)oc4c(O)c(O)cc1c4c23 [ellagic acid]	–	sub-micromolar	sub-micromolar	sub-micromolar	greater than 2 fold	–
